Data from patent US20240270821A1, “GIP/GLP1/GCG TRI-RECEPTOR AGONISTS AND USES THEREOF” (priority 2023, published 2024).
Like-named read-outs stand apart in the source and are kept apart here.

Assays:
Format in all cases: cell-based
hGcgR = hGcgR (Homo sapiens, UniProt P47871); assay: Functional cAMP activation in the presence of 0.1% casein (no HSA);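 further: intracellular cAMP rise after 30 min at 37 °C, read by HTRF against a cAMP standard curve, scaled from buffer only (0%) to maximal control ligand response (100%)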
hGLP-1R [1] = target: T1, hGLP-1R (Homo sapiens, UniProt P43220); assay: as above;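 further: intracellular cAMP rise after 30 min at 37 °C read by HTRF, normalized between buffer only (0%) and maximal control ligand (100%), four-parameter variable-slope fit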
hGLP-1R [2] = target: T1, hGLP-1R; assay: Functional cAMP activity in the presence of 1% HSA
human GcgR = human GcgR (Homo sapiens, UniProt P47871); assay: Functional cAMP activity in the presence of 1% HSA
hGIPR [3] = target: T2, hGIPR (Homo sapiens, UniProt P48546); assay: Functional cAMP activity in the presence of 1% HSA
T2 sequence (P48546 22-466): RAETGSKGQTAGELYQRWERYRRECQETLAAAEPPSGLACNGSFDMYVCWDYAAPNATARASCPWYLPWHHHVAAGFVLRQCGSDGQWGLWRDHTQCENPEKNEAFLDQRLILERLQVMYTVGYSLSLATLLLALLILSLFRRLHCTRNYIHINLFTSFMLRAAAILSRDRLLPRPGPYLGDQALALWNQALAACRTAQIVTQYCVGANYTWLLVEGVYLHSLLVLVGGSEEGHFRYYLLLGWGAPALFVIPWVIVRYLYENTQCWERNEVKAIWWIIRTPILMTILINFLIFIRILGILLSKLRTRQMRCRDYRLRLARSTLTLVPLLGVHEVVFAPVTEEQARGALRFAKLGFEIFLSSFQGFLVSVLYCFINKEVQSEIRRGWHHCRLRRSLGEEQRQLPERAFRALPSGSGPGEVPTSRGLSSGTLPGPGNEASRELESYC

human GLP1-R = human GLP1-R (Homo sapiens, UniProt P43220); assay: GLP1-R internalization assay in HEK293 cells; conditions: for Internalization % TOP: normalized to maximum concentration of GLP-1 (100%)
hGIPR [4] = target: T2, hGIPR; assay: Functional cAMP activation in the presence of 0.1% casein (no HSA);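 on Relative cAMP EC50, hGIPR: intracellular cAMP rise after 30 min at 37 °C read by HTRF against a standard curve, scaled between buffer alone (0%) and top control ligand concentration (100%), four-parameter fit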;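 on Relative cAMP EC50, hGLP-1R: intracellular cAMP rise after 30 min at 37 °C read by HTRF, normalized between buffer only (0%) and maximal control ligand (100%), four-parameter variable-slope fit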
[5] = in the presence of 0.1% casein (no HSA), geometric mean, read-out: Relative cAMP EC50, hGcgR
[6] = in the presence of 0.1% casein (no HSA), geometric mean, read-out: Relative cAMP EC50, hGLP-1R
[7] = read-out: cAMP Rel EC50, hGLP-1R
[8] = HEK293 cells expressing SNAP-GLP-1R, read-out: GLP1R Internalization EC50
[9] = in the presence of 0.1% casein (no HSA), geometric mean, read-out: Relative cAMP EC50, hGIPR

hGcgR, sequence (P47871 26-477): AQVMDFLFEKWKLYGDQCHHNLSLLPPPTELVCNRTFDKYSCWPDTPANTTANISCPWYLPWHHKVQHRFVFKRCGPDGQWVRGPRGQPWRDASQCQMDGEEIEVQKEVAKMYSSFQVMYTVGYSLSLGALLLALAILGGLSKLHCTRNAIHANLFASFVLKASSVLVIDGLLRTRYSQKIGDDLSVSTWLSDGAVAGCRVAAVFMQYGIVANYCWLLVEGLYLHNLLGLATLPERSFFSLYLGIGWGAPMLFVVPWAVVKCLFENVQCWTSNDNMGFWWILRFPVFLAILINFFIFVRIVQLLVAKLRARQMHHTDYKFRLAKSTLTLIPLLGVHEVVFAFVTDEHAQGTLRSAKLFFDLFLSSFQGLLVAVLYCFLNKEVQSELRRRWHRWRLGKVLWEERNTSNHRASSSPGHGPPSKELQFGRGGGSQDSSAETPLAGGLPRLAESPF
human GcgR, sequence (P47871 26-477): as above
T1 sequence (P43220 24-463): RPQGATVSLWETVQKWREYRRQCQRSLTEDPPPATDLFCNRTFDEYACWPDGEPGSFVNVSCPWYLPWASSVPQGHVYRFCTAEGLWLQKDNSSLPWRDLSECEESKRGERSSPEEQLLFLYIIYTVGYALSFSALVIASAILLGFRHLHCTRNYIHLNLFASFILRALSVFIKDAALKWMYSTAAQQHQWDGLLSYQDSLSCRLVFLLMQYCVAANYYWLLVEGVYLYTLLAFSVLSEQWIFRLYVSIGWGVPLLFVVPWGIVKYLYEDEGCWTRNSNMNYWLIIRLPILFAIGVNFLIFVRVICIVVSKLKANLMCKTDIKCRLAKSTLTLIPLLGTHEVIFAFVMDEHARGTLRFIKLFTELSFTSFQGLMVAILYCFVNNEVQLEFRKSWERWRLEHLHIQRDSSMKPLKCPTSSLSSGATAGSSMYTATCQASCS
human GLP1-R, sequence (P43220 24-463): as above

Row | Structure (SMILES) | EC50 (hGcgR; [5]) [nM] | EC50 (hGLP-1R [1]; [6]) [nM] | EC50 (hGLP-1R [2]; [7]) [nM] | EC50 (human GcgR; read-out: cAMP Rel EC50, hGcgR) [nM] | EC50 (hGIPR [3]; read-out: cAMP Rel EC50, hGIPR) [nM] | EC50 (human GLP1-R; [8]) [nM] | Internalization % TOP (human GLP1-R) [%] | EC50 (hGIPR [4]; [9]) [nM] | EC50 (hGcgR) [nM] | EC50 (hGLP-1R [1]) [nM] | EC50 (hGLP-1R [2]) [nM] | EC50 (human GcgR) [nM] | EC50 (hGIPR [3]) [nM] | EC50 (human GLP1-R) [nM] | EC50 (hGIPR [4]) [nM]
1 | CC[C@H](C)[C@H](NC(=O)[C@H](Cc1ccccc1)NC(=O)[C@H](C)NC(=O)C(C)(C)NC(=O)[C@H](CCC(N)=O)NC(=O)[C@H](C)NC(=O)[C@H](CCCCNC(=O)COCCOCCNC(=O)CC[C@H](NC(=O)CCCCCCCCCCCCCCCCC(=O)O)C(=O)O)NC(=O)[C@H](CCCCN)NC(=O)[C@H](CC(=O)O)NC(=O)[C@H](CC(C)C)NC(=O)[C@](C)(CC(C)C)NC(=O)[C@H](CCCCN)NC(=O)[C@H](CO)NC(=O)[C@H](Cc1ccccc1)NC(=O)[C@H](CC(=O)O)NC(=O)[C@H](CO)NC(=O)[C@@H](NC(=O)[C@H](Cc1ccccc1)NC(=O)[C@@H](NC(=O)CNC(=O)[C@H](CCC(N)=O)NC(=O)C(C)(C)NC(=O)[C@@H](N)Cc1ccc(O)cc1)[C@@H](C)O)[C@@H](C)O)C(=O)N[C@@H](CCC(=O)O)C(=O)N[C@@H](Cc1ccc(O)cc1)C(=O)N[C@@H](CC(C)C)C(=O)N[C@@H](CC(C)C)C(=O)N[C@@H](C)C(=O)NCC(=O)NCC(=O)N1CCC[C@H]1C(=O)N[C@@H](CO)C(=O)N[C@@H](CO)C(=O)NCC(=O)N[C@@H](CCC(=O)O)C(=O)N1CCC[C@H]1C(=O)N1CCC[C@H]1C(=O)N1CCC[C@H]1C(=O)N[C@@H](CO)C(=O)N[C@@H](CCC(=O)O)C(=O)NCC(N)=O [Example 22] | 5.42 | 2.94 | 592 | 532 | 81 | 41.9 | 64.7 | 0.246 | – | – | – | – | – | – | –
2 | CC[C@H](C)[C@H](NC(=O)[C@H](Cc1ccccc1)NC(=O)[C@H](C)NC(=O)C(C)(C)NC(=O)[C@H](CCC(N)=O)NC(=O)[C@H](C)NC(=O)[C@H](CCCCNC(=O)COCCOCCNC(=O)COCCOCCNC(=O)CC[C@H](NC(=O)CCCCCCCCCCCCCCCCCCC(=O)O)C(=O)O)NC(=O)[C@H](CCCCN)NC(=O)[C@H](CC(=O)O)NC(=O)[C@H](CC(C)C)NC(=O)[C@](C)(CC(C)C)NC(=O)[C@H](CCCCN)NC(=O)[C@H](CO)NC(=O)[C@H](Cc1ccccc1)NC(=O)[C@H](CC(=O)O)NC(=O)[C@H](CO)NC(=O)[C@@H](NC(=O)[C@H](Cc1ccccc1)NC(=O)[C@@H](NC(=O)CNC(=O)[C@H](CCC(N)=O)NC(=O)C(C)(C)NC(=O)[C@@H](N)Cc1ccc(O)cc1)[C@@H](C)O)[C@@H](C)O)C(=O)N[C@@H](CCC(=O)O)C(=O)N[C@@H](Cc1ccc(O)cc1)C(=O)N[C@@H](CC(C)C)C(=O)N[C@@H](CC(C)C)C(=O)N[C@@H](CCC(=O)O)C(=O)NC(C)(C)C(=O)NCC(=O)N1CCC[C@H]1C(=O)N[C@@H](CO)C(=O)N[C@@H](CO)C(=O)NCC(=O)N[C@@H](C)C(=O)N1CCC[C@H]1C(=O)N1CCC[C@H]1C(=O)N1CCC[C@H]1C(=O)NCC(=O)N[C@@H](CCC(=O)O)C(=O)NCC(N)=O [Example 55] | – | – | – | – | – | – | 70.7 | – | 5.2 | 1.96 | 479 | 960 | 27.8 | 79.5 | 0.0856
3 | CC[C@H](C)[C@H](NC(=O)[C@H](Cc1ccccc1)NC(=O)[C@H](C)NC(=O)C(C)(C)NC(=O)[C@H](CCC(N)=O)NC(=O)[C@H](C)NC(=O)[C@H](CCCCNC(=O)COCCOCCNC(=O)CC[C@H](NC(=O)CCCCCCCCCCCCCCCCC(=O)O)C(=O)O)NC(=O)[C@H](CCCCN)NC(=O)[C@H](CC(=O)O)NC(=O)[C@H](CC(C)C)NC(=O)[C@](C)(CC(C)C)NC(=O)[C@H](CCCN)NC(=O)[C@H](CO)NC(=O)[C@H](Cc1ccccc1)NC(=O)[C@H](CC(=O)O)NC(=O)[C@H](CO)NC(=O)[C@@H](NC(=O)[C@H](Cc1ccccc1)NC(=O)[C@@H](NC(=O)CNC(=O)[C@H](CCC(N)=O)NC(=O)C(C)(C)NC(=O)[C@@H](N)Cc1ccc(O)cc1)[C@@H](C)O)[C@@H](C)O)C(=O)N[C@@H](CCC(=O)O)C(=O)N[C@@H](Cc1ccc(O)cc1)C(=O)N[C@@H](CC(C)C)C(=O)N[C@@H](CC(C)C)C(=O)N[C@@H](CCC(=O)O)C(=O)N[C@H](C)C(=O)NCC(=O)N1CCC[C@H]1C(=O)N[C@@H](CO)C(=O)N[C@@H](CO)C(=O)NCC(=O)N[C@@H](C)C(=O)N1CCC[C@H]1C(=O)N1CCC[C@H]1C(=O)N1CCC[C@H]1C(=O)N[C@@H](CO)C(=O)NCC(=O)N[C@@H](CCC(=O)O)C(N)=O [Example 129] | 2.01 | 1.87 | 284 | 510 | 24.3 | 22.5 | 40.6 | 0.134 | – | – | – | – | – | – | –
4 | CC[C@H](C)[C@H](NC(=O)[C@H](Cc1ccccc1)NC(=O)[C@H](C)NC(=O)C(C)(C)NC(=O)[C@H](CCC(N)=O)NC(=O)[C@H](C)NC(=O)[C@H](CCCCNC(=O)COCCOCCNC(=O)COCCOCCNC(=O)CC[C@H](NC(=O)CCCCCCCCCCCCCCCCC(=O)O)C(=O)O)NC(=O)[C@H](CCCCN)NC(=O)[C@H](CC(=O)O)NC(=O)[C@H](CC(C)C)NC(=O)[C@](C)(CC(C)C)NC(=O)[C@H](CCCN)NC(=O)[C@H](CO)NC(=O)[C@H](Cc1ccccc1)NC(=O)[C@H](CC(=O)O)NC(=O)[C@H](CO)NC(=O)[C@@H](NC(=O)[C@H](Cc1ccccc1)NC(=O)[C@@H](NC(=O)CNC(=O)[C@H](CCC(N)=O)NC(=O)C(C)(C)NC(=O)[C@@H](N)Cc1ccc(O)cc1)[C@@H](C)O)[C@@H](C)O)C(=O)N[C@@H](CCC(=O)O)C(=O)N[C@@H](Cc1ccc(O)cc1)C(=O)N[C@@H](CC(C)C)C(=O)N[C@@H](CC(C)C)C(=O)N[C@@H](CCC(=O)O)C(=O)NC(C)(C)C(=O)NCC(=O)N[C@@H](CCC(=O)O)C(=O)N[C@@H](CO)C(=O)N[C@@H](CO)C(=O)NCC(=O)N[C@@H](C)C(=O)N1CCC[C@H]1C(=O)N1CCC[C@H]1C(=O)N1CCC[C@H]1C(=O)N[C@@H](CO)C(=O)NCC(=O)N[C@@H](CCC(=O)O)C(N)=O [Example 185] | 3.5 | 5.46 | 502 | 504 | 21.1 | 144 | 43.7 | 0.123 | – | – | – | – | – | – | –
5 | CC[C@H](C)[C@H](NC(=O)[C@H](Cc1ccccc1)NC(=O)[C@H](C)NC(=O)C(C)(C)NC(=O)[C@H](CCC(N)=O)NC(=O)[C@H](C)NC(=O)[C@H](CCCCNC(=O)CC[C@H](NC(=O)CC[C@H](NC(=O)CC[C@H](NC(=O)CCCCCCCCCCCCCCCCC(=O)O)C(=O)O)C(=O)O)C(=O)O)NC(=O)[C@H](CCCCN)NC(=O)[C@H](CC(=O)O)NC(=O)[C@H](CC(C)C)NC(=O)[C@](C)(CC(C)C)NC(=O)[C@H](CCCN)NC(=O)[C@H](CO)NC(=O)[C@H](Cc1ccccc1)NC(=O)[C@H](CC(=O)O)NC(=O)[C@H](CO)NC(=O)[C@@H](NC(=O)[C@H](Cc1ccccc1)NC(=O)[C@@H](NC(=O)CNC(=O)[C@H](CCC(N)=O)NC(=O)C(C)(C)NC(=O)[C@@H](N)Cc1ccc(O)cc1)[C@@H](C)O)[C@@H](C)O)C(=O)N[C@@H](CCC(=O)O)C(=O)N[C@@H](Cc1ccc(O)cc1)C(=O)N[C@@H](CC(C)C)C(=O)N[C@@H](CC(C)C)C(=O)N[C@@H](CCC(=O)O)C(=O)N[C@H](C)C(=O)NCC(=O)N1CCC[C@H]1C(=O)N[C@@H](CO)C(=O)N[C@@H](CO)C(=O)NCC(=O)N[C@@H](C)C(=O)N1CCC[C@H]1C(=O)N1CCC[C@H]1C(=O)N1CCC[C@H]1C(=O)N[C@@H](CO)C(=O)NCC(=O)N[C@H](C(N)=O)[C@@H](C)O [Example 205] | 8.98 | 2.71 | 234 | 397 | 24.4 | 49.4 | 67.7 | 0.16 | – | – | – | – | – | – | –
